The values that follow come from patent publication US10335382B2, “Use of hydrogen sulfide synthesis inhibitors for cancer therapy” (THE BOARD OF REGENTS OF THE UNIVERSITY OF TEXAS SYSTEM, priority 2013, dated 2019).

“Also recorded” adds a separate entry of the source.

Experiment [1] relates to patient-derived colon cancer xenografts. The experiment in a line: Patient-derived tumor xenograft (PDTX) growth. In kind it is in vivo, nu/nu mice. The conditions noted are these: AOAA 9 mg/kg/day s.c. The procedure: Nu/nu Balb/C female mice (8-10 weeks) were injected subcutaneously in the right and left dorsum (10^6 cells/side with HCT-116 cells). One week later, the mice were randomized and subcutaneous injections of phosphate buffered saline (PBS) or AOAA (9 mg/kg/day) were performed 6 days/week. Tumor diameters were measured transcutaneously using calipers and tumor volumes were calculated using the formula V=(π/6)hd^2. T-test comparisons of the tumor volumes and final weights at harvest were performed. Xenotrials with patient-derived xenografts (PTX) were performed on nu/nu mice implanted subcutaneously with a piece of Passage 2 tumor measuring 2-5 mm^3 each. When a small palpable tumor was evident at 7-10 days, the mice with tumor take were randomized and subjected to subcutaneous injection of vehicle or AOAA (9 mg/kg/day) 6 days/week. Specimens were fixed with 10% formalin and embedded in paraffin. 5 μm sections were stained with hematoxylin and eosin. Each in vivo experiment was repeated at least twice.
In general terms: A xenograft is tissue or cells of one species grown in another, often human tumour cells in immunodeficient mice.

The subject of experiment [2] is peritumor microvessel blood flow. The experiment is described as follows: Tumor microvascular blood flow (laser Doppler). It counts as in vivo, mice. The conditions noted are these: intratumoral injection; AOAA 9 mg/kg, L-cysteine 1 mg/kg. On the procedure:
FIG. 6. L-Cysteine increases, while AOAA reduces microvessel blood flow in tumor bearing mice. Tumor bearing mice were anesthetized by i.p. injection of ketamine-xylazine and a laser Doppler (PeriFlux system 5000) was placed on top of the tumor for microvessel blood flow measurements. After a stabilization period, L-Cys or AOAA were injected subcutaneously in proximity of the tumor. […] Data represent mean±SEM of n=6 determinations.
Skin microvascular blood flow was measured using a PeriFlux 5000 laser-Doppler flowmeter. Mice bearing PTX were anesthetized by ketamine-xylazine (i.p.). The laser-Doppler probe was placed on top of the tumors and a stable basal signal was recorded. Changes in the subcutaneous microcirculatory perfusion were detected following intratumoral injections of either L-cysteine (1 mg/kg) or AOAA (9 mg/kg).

Experiment [3] has as its system HCT116 colon cancer cell. The experiment in a line: HCT116 colon cancer cell proliferation (xCELLigence). It counts as cell-based, human. The settings on record: AOAA 1 mM; 36 hours.
Experiment [4] has as its target T1, CBS (Homo sapiens, UniProt P35520).
T1 sequence (P35520 1-551): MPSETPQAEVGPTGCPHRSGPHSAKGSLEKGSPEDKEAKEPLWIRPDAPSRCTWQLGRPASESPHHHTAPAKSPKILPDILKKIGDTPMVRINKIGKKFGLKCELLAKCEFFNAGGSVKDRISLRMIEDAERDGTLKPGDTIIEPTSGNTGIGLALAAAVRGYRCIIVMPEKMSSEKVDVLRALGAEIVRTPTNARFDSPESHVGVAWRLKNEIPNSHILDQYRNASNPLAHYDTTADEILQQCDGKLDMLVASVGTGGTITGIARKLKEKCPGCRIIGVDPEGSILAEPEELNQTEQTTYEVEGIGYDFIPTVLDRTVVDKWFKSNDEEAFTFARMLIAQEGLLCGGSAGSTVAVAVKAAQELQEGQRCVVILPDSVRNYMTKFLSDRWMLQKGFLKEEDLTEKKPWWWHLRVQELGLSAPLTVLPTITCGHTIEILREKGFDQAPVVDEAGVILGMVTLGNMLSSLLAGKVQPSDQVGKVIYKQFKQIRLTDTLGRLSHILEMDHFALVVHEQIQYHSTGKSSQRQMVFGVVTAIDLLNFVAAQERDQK
Further details: These studies used full-length human CBS enzyme; made in house; host or cells: E. coli BL21 (DE3) Codon Plus. The conditions noted are these: cited from earlier work.

Consider `NOCC(=O)O` [AOAA, aminooxyacetic acid], for which, in experiment [1], the “PDTX growth, second patient with stage II disease and mutant Kras allele” value was “growth inhibitory effects”; the “rate of PDTX growth, patient with stage III disease and Kras mutation” value is reported as “reduced rate”. Besides, the “peritumor / skin microvessel blood flow” value in experiment [2] is given as “significantly reduced; also recorded: marked decrease”. The HCT116 cell proliferation entry in experiment [3] is “markedly reduced”. Also, in experiment [4], the “concentrations exerting inhibitory effects on human recombinant CBS” value is reported as “low micromolar concentrations”.
